{"source": "ChEMBL document CHEMBL1201862", "about": "“PubChem BioAssay data set” (2004)", "target": "Envelope glycoprotein gp160 (Human immunodeficiency virus 1, UniProt Q6QLK5)", "sequence (Q6QLK5 whole entry, the tested form may be a part)": "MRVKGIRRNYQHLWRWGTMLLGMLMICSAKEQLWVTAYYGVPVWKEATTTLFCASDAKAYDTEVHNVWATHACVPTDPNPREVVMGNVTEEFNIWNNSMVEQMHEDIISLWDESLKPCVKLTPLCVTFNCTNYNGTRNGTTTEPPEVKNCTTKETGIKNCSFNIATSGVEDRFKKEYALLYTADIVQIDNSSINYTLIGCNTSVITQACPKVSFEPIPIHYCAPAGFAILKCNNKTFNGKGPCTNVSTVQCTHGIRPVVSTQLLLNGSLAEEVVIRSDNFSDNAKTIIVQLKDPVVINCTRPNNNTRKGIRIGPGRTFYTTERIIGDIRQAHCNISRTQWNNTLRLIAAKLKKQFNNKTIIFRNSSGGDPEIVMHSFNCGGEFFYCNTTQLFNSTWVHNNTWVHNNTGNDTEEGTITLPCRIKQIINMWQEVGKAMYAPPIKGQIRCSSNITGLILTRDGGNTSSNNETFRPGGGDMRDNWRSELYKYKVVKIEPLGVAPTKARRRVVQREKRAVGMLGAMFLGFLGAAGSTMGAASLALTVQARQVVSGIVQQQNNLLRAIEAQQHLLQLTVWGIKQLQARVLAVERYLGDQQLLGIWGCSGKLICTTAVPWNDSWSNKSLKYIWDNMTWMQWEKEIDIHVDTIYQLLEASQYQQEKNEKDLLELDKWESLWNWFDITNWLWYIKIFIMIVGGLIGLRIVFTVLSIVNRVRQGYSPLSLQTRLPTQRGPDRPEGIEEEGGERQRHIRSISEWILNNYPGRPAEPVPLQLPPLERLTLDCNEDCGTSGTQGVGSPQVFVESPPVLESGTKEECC", "assay": "inhibitors of HIV fusion peptide binding, primary screen, biochemical, uHTS, fluorescence dequenching (AID 1986)", "note": "Activity calls are given as the source filed them. Cut-off read from the data, not from the text of the source: actives have a measured IC50 and inactives only a lower limit."}
{"compound": "O=C(O)c1[nH]c2ccccc2c1C(c1c(F)cccc1Cl)c1c(C(=O)O)[nH]c2ccccc12", "values": [{"measurement": "IC50", "result": "13.4 µM (active)"}]}
{"compound": "Cc1nn(CCc2nn[nH]n2)c2nc(-c3ccc(C4CCCCC4)cc3)cc(C(F)(F)F)c12", "values": [{"measurement": "IC50", "result": "12.4 µM (active)"}]}
